In patent publication US9808434B2, “Compound for treating cancer and diabetes” (CITY OF HOPE, priority 2011, dated 2017):

Legend:
[1] = test system: B16-F0 melanoma; format: in vivo
Description: For melanoma studies, C57B mice (for syngeneic B16-F0 mouse melanoma model) and Hsd: Athymic nude nu/nu mice (for A2058 human melanoma mouse xenografts model), were obtained from Harlan, Indianapolis, Ind. All animal experiments were carried out in accordance with a protocol approved by the Institutional Animal Care and Use Committee (IACUC). In each model, ten 10-weeks-old mice were divided into two groups of 5 animals (treated with corn oil (vehicle), and COH-SR4 compound 4 mg/kg b.w.). All animals were injected with 2×10^6 melanoma cells suspensions in 100 μL of PBS, subcutaneously into one flank of each mouse. Treatment was started 10 days after the implantation to see palpable tumor growth. Treatment consisted of 0.1 mg of COH-SR4/mice in 200 μL corn oil by oral gavage alternate day. Control groups were treated with 200 μL corn oil by oral gavage alternate days. Animals were examined daily for signs of tumor growth. Tumors were measured in two dimensions using calipers. Photographs of animals were taken at day 1, day 10, day 14, day 18, day 20, day 30, and day 51 after subcutaneous injection, are shown for all groups. Photographs of tumors were also taken at day 20 (for syngeneic model), and at day 51 (for xenograft model).
C57B mice for syngeneic model were obtained from Harlan, Indianapolis, Ind. All animal experiments were carried out in accordance with a protocol approved by the Institutional Animal Care and Use Committee (IACUC). Ten 10-weeks-old mice were divided into two groups of 5 animals (treated with corn oil (vehicle), and COH-SR4 4 mg/kg body weight). All 10 animals were injected with 1×10^6 mouse melanoma cells (B16-F0) suspensions in 100 μL of PBS, subcutaneously into one flank of each mouse. Treatment was started 10 days after the B16 melanoma cells implantation to see palpable tumor growth. Treatment consisted of 0.1 mg of COH-SR4/mice in 200 μL corn oil by oral gavage alternate day. Control groups were treated with 200 μL corn oil by oral gavage alternate day. Animals were examined daily for signs of tumor growth, and body weights were recorded. Tumors were measured in two dimensions using calipers. Photographs of animals were taken at day 1, day 10, day 14, day 18, and day 20 after subcutaneous injection, are shown for all groups. Photographs of tumors were also taken at day 20.
C57B mice (for syngeneic B16-F0 mouse melanoma model) and Hsd: Athymic nude nu/nu mice (for A2058 human melanoma mouse xenografts model), were used for testing the impact of oral administration of COH-SR4 on melanoma progression in vivo models. In each model, ten 10-weeks-old mice were divided into two groups of 5 animals (treated with corn oil (vehicle), and COH-SR4 compound (4 mg/kg b.w.). All animals were injected with 2×10^6 melanoma cells suspensions in 100 μL of PBS, subcutaneously into one flank of each mouse. Treatment was started 10 days after the implantation of melanoma cells. Treatment consisted of 0.1 mg of COH-SR4/mice in 200 μL corn oil by oral gavage on alternate days. Control groups were treated with 200 μL corn oil by oral gavage alternate day. Animals were examined daily for signs of tumor growth and body weights were recorded. […] Animals were examined daily for signs of tumor growth. Tumors were measured in two dimensions using calipers. […] Tumors were measured in two dimensions using calipers and time-course analysis of tumor regression was performed during the study. […]

[2] = test system: B16 mouse melanoma tumor; assay: Histopathology (IHC) of B16 melanoma tumor sections; format: in vivo; details: treated vs control tumors
Description: B16 melanoma bearing C57B mice tumor sections were treated without or with COH-SR4, and used for histopathologic analyses.
H&E stain, or hematoxylin and eosin stain, a general gross morphology stain were used. […] Eosin was pink and stained proteins nonspecifically. In a typical tissue, nuclei were stained blue, whereas the cytoplasm and extracellular matrix had varying degrees of pink staining. The pink coloration in the control tumor cells indicated cell proliferation (FIG. 57)
IHC analyses for Ki-67 expression (marker of cellular proliferation), CD31 (angiogenesis marker), and pAMPK (cellular regulator of lipid and glucose metabolism) from tumors in mice of control and COH-SR4-treated groups were carried out. Statistical significance of difference was determined by two-tailed Student's t test. When COH-SR4-treated tumor sections were compared with the control, p<0.001. […] Sections were counterstained with Hematoxylin (blue). Photomicrographs at 40× magnification were acquired using Olympus Provis AX70 microscope. Percent staining was determined by measuring positive immuno-reactivity per unit area. Arrows indicated the areas for positive staining for an antigen. The intensity of antigen staining was quantified by digital image analysis. Bars represented mean+S.E. (n=5); “*” means p<0.001 compared with control.

O=C(Nc1cc(Cl)cc(Cl)c1)Nc1cc(Cl)cc(Cl)c1 [COH-SR4, 1,3-bis(3,5-dichlorophenyl) urea]
tumor cross-section areas compared to corn oil ([1]; Example 16, 4 mg/kg oral gavage alternate day): significantly smaller | day of death ([1]; Example 16, 4 mg/kg, corn oil only died on day 20): 48 days | tumor weights compared to corn oil ([1]; Example 16, day 20): significantly smaller | tumor weight ([1]; Example 22, day 20, control 2.36±0.2 g): 1.07 ± 0.2 g | survival ([1]; Example 22, vehicle censored by day 20±2): 50 ± 5 days | CD31 (angiogenesis marker) [2]: decreased CD31 | Ki-67 expression (cellular proliferation) [2]: decreased Ki67 | pAMPK [2]: increased pAMPK
